Test results as given in patent US9249115B2, “N,N1 substituted piperazines having combined antiaggregant, anticoagulant and vasodilatory activity, and method for producing same” (Vertex Closed Joint Stock Company, priority 2011, dated 2016).

Key:
[1] = system: Ristocetin-induced thrombocyte aggregation; assay: Ristocetin-induced thrombocyte aggregation, donor human thrombocyte enriched plasm; type: cell-based; settings: ristocetin inductor; for MA (60 c), %: amplitude at 60 s
Protocol: (§1) The study of antiaggregant and anticoagulant properties of N,N′-substituted piperazines on the sample of donor human blood. The blood was collected by donor ulnar vein punction with dry sharp needle without syringe. The administration of drugs that influence on thrombocyte function was cancelled in 7÷10 days before the experiment.
(§2) In graduated plastic centrifuge tube 1 ml of 3.8% basic trisodium citrate solution with pH=7.4 was placed. The ulnar vein was punctuated, the freely effluent blood was collected up to 10 ml mark, the mixture was instantly stirred to prevent air bubbles appearance. The collected and stabilized blood was split in two 5 ml portions in two tubes.
(§3) To obtain thrombocyte enriched plasm the stabilized blood was spinned at 1000 rpm (150 g) for 8 min at room temperature. The repeated spinning of the blood at 3200 rpm (2300 g) for 20 min at 22° C. yielded thrombocyte depleted plasm.
(§4) The study of anticoagulant activity was done within 2 h after thrombocyte enriched plasm obtaining. The plasm was normalized to achieve thrombocyte concentration of 200-250×10^9/L by addition of thrombocyte-free plasm. The concentration of thrombocytes was measured on SOLAR AR 2110 analyzer.
(§5) Antiaggregant properties of N,N′-substituted piperazines were evaluated by their influence on thrombocyte aggregation in tests with ADP-, collagen- and ristocetin-induced aggregation. To dissolve N,N′-substituted piperazines and to dilute reagents Tris-HCl-buffer with pH=7.4 was used.
(§6) As the general characteristic of thrombocyte aggregation activity the maximum amplitude (MA) of aggregation was taken on. That is the peak value of transmittance coefficient of the sample after aggregation agent introduction expressed in % relative to the transmittance of thrombocyte-free plasm. The response was registered on ascending linear segment of aggregation curve for 16 s.
(§7) The measurements were done using 4-channel CHRONO-LOG 490-4D analyzer (CHRONO-LOG, USA). The temperature in the cell was 37° C., the spinning speed of magnetic stirrer was 1200 rpm.
(§8) In a cuvette 0.5 ml of N,N′-substituted piperazine solution was placed, then 0.4 ml of normalized thrombocyte plasm was added. The mixture was stirred and incubated at 37° C. for 5 min. The cuvette was placed in aggregometer, then 0.05 ml of aggregation inductor solution was added (ADP or collagen or ristocetin). Thrombocyte aggregation was measured for 3 min.
To study ristocetin-induced thrombocyte aggregation CHRONO-PAR RISTOCETIN reagent (CHRONO-LOG, USA) was diluted with buffer solution until ristocetin concentration reached 12 mg/ml. Thrombocyte aggregation amplitude was measured in 60 s after the beginning of the reaction.

[2] = system: Thrombocyte aggregation induced by arachidonic acid; assay: Thrombocyte aggregation induced by arachidonic acid; type: cell-based, human; settings: arachidonic acid 0.2 mmol
Protocol: as §1, §2, §3
The study of antiaggregant properties of N,N′-substituted piperazines with arachidonic acid (CHRONO-LOG, USA) as an inductor: to 450 l of thrombocyte plasm 50 l of N,N′-substituted piperazine solution was added, the mixture was incubated in the cuvette of CHRONO-LOG aggregometer for 15 min at 36° C. The concentration of arachidonic acid in the sample was 0.2 mmol, the concentrations of N,N′-substituted piperazines and comparison substance (aspirin) were 4÷5 mmol/L.
It was shown that N,N′-substituted piperazines have pronounced aspirin-like activity by inhibiting thrombocyte aggregation induced by arachidonic acid (table 5).

[3] = system: thrombocyte depleted plasm coagulation; assay: Activated partial thromboplastin time (APTT), anticoagulant properties; type: biochemical, human
Protocol: as §1, §2, §3
To study anticoagulant properties of N,N′-substituted piperazines activated partial thromboplastin time (APTT) was measured. That is the ability of N,N′-substituted piperazines to increase thrombocyte depleted plasm coagulation time compared to the ability of control sample. The set of reagents for APTT determination (Russian Scientific Research Institute of Hematology and Transfusiology Ministry of Health of Russian Federation by Technical Regulation 9398-214-01966456-99) and COAG-A-MATE® XM coagulometer (ORGANON TEKNIKA, USA) were used.
The solutions of N,N′-substituted piperazines were mixed with thrombocyte depleted plasm at 1:1 ratio, then 0.1 ml of APTT reagent was added, the mixture was incubated in the cuvette for 5 min at 37° C., then 0.1 ml of 0.277% CaCl2 solution was added. The time of coagulation (in seconds) was measured.

[4] = system: Collagen-induced thrombocyte aggregation; assay: Collagen-induced thrombocyte aggregation, donor human thrombocyte enriched plasm; type: cell-based; settings: collagen inductor; for MA, %: human thrombocyte plasm
Protocol: as §1, §2, §3, §4, §5, §6, §7, §8
In collagen-induced thrombocyte aggregation test CHRONO-PAR COLLAGEN reagent (CHRONO-LOG, USA) was diluted with buffer solution until collagen concentration reached 10 µg/ml.

[5] = system: ADP-induced thrombocyte aggregation; assay: ADP-induced thrombocyte aggregation, donor human thrombocyte enriched plasm; type: cell-based; settings: ADP inductor; for MA, %: human thrombocyte plasm
Protocol: as §1, §2, §3, §4, §5, §6, §7, §8
ADP-induced reversible thrombocyte aggregation test utilized CHRONO-PAR ADP reagent (CHRONO-LOG, USA) with 10 mol concentration. Primary (reversible) thrombocyte aggregation was evaluated by the response on addition of ADP threshold dose (ADP concentration is 1 mol) to plasm.

[6] = 1.7 mmol/L, thrombocyte depleted plasm
[7] = 2.5 mmol/L, thrombocyte depleted plasm
[8] = 4.1 mmol/L, thrombocyte depleted plasm
[9] = 8.3 mmol/L, thrombocyte depleted plasm
[10] = Homo sapiens, 0.5 mmol/L, read-out: (MA0-MAx): MA0 * 100%
[11] = Homo sapiens, 1.25 mmol/L, read-out: (MA0-MAx): MA0 * 100%
[12] = Homo sapiens, 2.5 mmol/L, read-out: (MA0-MAx): MA0 * 100%
[13] = Homo sapiens, 5.0 mmol/L, read-out: (MA0-MAx): MA0 * 100%
[14] = Homo sapiens, 0.2 mmol/L, read-out: (MA0-MAx): MA0 * 100%
[15] = Homo sapiens, 2.50 mmol/L, read-out: (MA0-MAx): MA0 * 100%

Row | SMILES | (APTTx-APTT0): APTT0 * 100% ([3]; 1.7 mmol/L) [%] | APTT [3, 6] [s] | (APTTx-APTT0): APTT0 * 100% ([3]; 2.5 mmol/L) [%] | (APTTx-APTT0): APTT0 * 100% ([3]; 4.1 mmol/L) [%] | APTT [3, 8] [s] | APTT [3, 9] [s] | MA, % ([4]; 0.5 mmol/L) [%] | MA, % ([4]; 1.25 mmol/L) [%] | MA, % ([4]; 2.5 mmol/L) [%] | inhibition at 500 µM [4, 10] [%] | inhibition at 1250 µM [4, 11] [%] | inhibition at 2500 µM [4, 12] [%] | MA, % ([5]; 0.2 mmol/L) [%] | MA, % ([5]; 0.5 mmol/L) [%] | MA, % ([5]; 1.25 mmol/L) [%] | MA, % ([5]; 2.50 mmol/L) [%] | inhibition at 200 µM [5, 14] [%] | inhibition at 500 µM [5, 10] [%] | inhibition at 1250 µM [5, 11] [%] | inhibition at 2500 µM [5, 15] [%] | further results
1 | COc1cc(C(=O)N2CCN(C(=N)N)CC2)cc(OC)c1OC.O=C(O)/C=C/C(=O)O [Example 1, 4-(3,4,5-trimethoxybenzoyl)piperazine-1-carboximidamide fumarate hemihydrate] | 12.2 | 50.4 ± 7.0 | 40.1 | 56.8 | 70.4 ± 5.2 | 139.1 ± 9.5 | 70.0 ± 5.1 | 60.7 ± 7.7 | 18.4 ± 3.1 | 5.4 | 18.8 | 75.1 | 6.4 ± 1.1 | 5.0 ± 1.1 | 4.1 ± 0.7 | 3.0 ± 12.1 | 53.3 | 63.5 | 70.1 | 78.1 | (MAx-MA0): MA0 * 100% ([1]; 0.5 mmol/L): 1.8%; MA (60 c), % ([1]; 0.5 mmol/L): 70.0 ± 10.5%; (MAx-MA0): MA0 * 100% (Ozagrel: (MA0-MAx): MA0 * 100%) ([1]; 1.25 mmol/L): 12.9%; MA (60 c), % ([1]; 1.25 mmol/L): 62.1 ± 7.7%; (MAx-MA0): MA0 * 100% (Ozagrel: (MA0-MAx): MA0 * 100%) ([1]; 2.5 mmol/L): 22.7%; MA (60 c), % ([1]; 2.5 mmol/L): 55.1 ± 11.1%; (MAx-MA0): MA0 * 100% (Ozagrel: (MA0-MAx): MA0 * 100%) ([1]; 5.0 mmol/L): 53.3%; MA (60 c), % ([1]; 5.0 mmol/L): 33.3 ± 4.5%; MA ([2]; 4.5 mmol/L): 33; Max. rate for 16 sec ([2]; 4.5 mmol/L): 20; inhibition at 4500 µM ([2]; Homo sapiens, 4.5 mmol/L): 60%; APTT [3, 7]: 63.3 ± 5.7 s; (APTTx-APTT0): APTT0 * 100% ([3]; 8.3 mmol/L): 209.8%; MA, % ([4]; 5.0 mmol/L): 2.1 ± 0.4%; inhibition at 5000 µM [4, 13]: 97.2%; MA, % ([5]; 5.0 mmol/L): 1.3 ± 0.5%; inhibition at 5000 µM [5, 13]: 90.5%
2 | CCOc1ccc(CN2CCN(C(=N)N)CC2)c(OCC)c1OCC.Cl [Example 5, 4-(2,3,4-triethoxybenzyl)piperazine-1-carboximidamide hydrochloride] | −4.9 | 53.7 ± 7.0 | 22.7 | 35.6 | 76.5 ± 9.8 | >150 | 74.5 ± 4.3 | 63.7 ± 2.2 | 23.9 ± 0.3 | 5.3 | 19.1 | 69.8 | 14.9 ± 2.0 | 11.5 ± 1.3 | 5.3 ± 2.2 | 1.9 ± 0.4 | 2.7 | 24.8 | 65.4 | 87.8 | MA ([2]; 4.0 mmol/L): 2; Max. rate for 16 sec ([2]; 4.0 mmol/L): 1; inhibition at 4000 µM ([2]; Homo sapiens, 4.0 mmol/L): 100%; APTT, sec [3, 7]: 69.2 ± 5.9- sec; (APTTx-APTT0): APTT0 * 100% ([3]; 6.3 mmol/L): 75.4%; APTT ([3]; 6.3 mmol/L, thrombocyte depleted plasm): 98.9 ± 9.9 s
